US20250144067A1, “PERSONALIZED STARVATION THERAPY FOR CANCER” (Faeth Therapeutics, Inc., priority 2021, published 2025)
Structures can show the parent of a compound that is named as a salt. Where two headings read alike, the source gives them in different places.

How the values were obtained:
[1] = test system: NCI-H292 lung cancer cells; experiment: FDA drug screening, complete media vs cholesterol-free media without statin (TABLE 1); type: cell-based, human
[2] = test system: NCI-H292 lung cancer cells; experiment: FDA drug screening, complete media vs cholesterol-free media with simvastatin (TABLE 2); type: cell-based, human
[3] = NCI-H292 cells, cholesterol-free media without statin
[4] = complete vs cholesterol-free media, greater than 0 enhanced anti-cancer activity, about 0 neutral, below 0 antagonists
[5] = NCI-H292 cells, cholesterol-free media with simvastatin 0.04 μM, FDA drug library screen (TABLE 2)
[6] = NCI-H292 cells, complete media, FDA drug library screen (TABLE 2)
[7] = complete media minus cholesterol-free media + simvastatin (0.04 μM), >0 enhanced anti-cancer activity, about 0 neutral, <0 antagonist
[8] = Complete minus Cholesterol-free, greater than 0 enhanced anti-cancer activity, about 0 neutral, below 0 antagonists
[9] = NCI-H292 cells in cholesterol-free media without statin
[10] = NCI-H292 cells in complete media
[11] = NCI-H292 cells, FDA drug library screen, cholesterol-free media with simvastatin 0.04 μM
[12] = NCI-H292 cells, FDA drug library screen, complete media
[13] = complete media vs cholesterol-free media + simvastatin (0.04 μM), >0 enhanced anti-cancer activity, about 0 neutral, <0 antagonist
[14] = Complete minus Cholesterol-free, greater than 0 enhanced anti-cancer activity, about 0 neutral, below 0 antagonist
[15] = NCI-H292 cells, FDA drug library screen, cholesterol-free media without statin
[16] = Complete minus Cholesterol-free, >0 enhanced anti-cancer activity, about 0 neutral, <0 antagonist
[17] = NCI-H292 cells, FDA library drug in cholesterol-free media with simvastatin 0.04 μM
[18] = NCI-H292 cells, FDA library drug in complete media
[19] = Complete minus Cholesterol-free, […]
[20] = complete media minus cholesterol-free media + simvastatin (0.04 μM), […]
[21] = NCI-H292 cells, cholesterol-free media without statin, FDA drug library screen
[22] = NCI-H292 cells, complete media, FDA drug library screen
[23] = complete vs cholesterol-free media, >0 enhanced anti-cancer activity, about 0 neutral, <0 antagonist
[24] = NCI-H292 cells, drug in cholesterol-free media with simvastatin 0.04 μM
[25] = NCI-H292 cells, drug in complete media
[26] = complete media minus cholesterol-free media + simvastatin, >0 enhanced anti-cancer activity, about 0 neutral, <0 antagonist

CCn1cc(C(=O)O)c(=O)c2cnc(N3CCNCC3)nc21 [Pipemidic acid]
Cholesterol-free [1, 3]: 1.181 | Complete ([1]; NCI-H292 cells, complete media): 0.8267 | Difference [1, 4]: −0.35 | Cholesterol-free media + simvastatin (0.04 μM) [2, 5]: 1.008 | Complete Media [2, 6]: 0.9896 | Difference [2, 7]: −0.02

CC(=O)c1ccc2c(c1)N(CCCN1CCC(CCO)CC1)c1ccccc1S2 [Piperacetazine]
Difference [1, 8]: −0.82 | Cholesterol-free [1, 9]: 1.769 | Complete [1, 10]: 0.9455 | Cholesterol-free media + simvastatin (0.04 μM) [2, 11]: 1.088 | Complete Media [2, 12]: 0.9352 | Difference [2, 13]: −0.15

CCN1CCN(C(=O)N[C@@H](C(=O)N[C@@H]2C(=O)N3[C@@H]2SC(C)(C)[C@@H]3C(=O)[O-])c2ccccc2)C(=O)C1=O.[Na+] [Piperacillin (sodium)]
Difference [1, 14]: −0.14 | Cholesterol-free [1, 15]: 1.282 | Complete [1, 12]: 1.138 | Cholesterol-free media + simvastatin (0.04 μM) [2, 11]: 2.325 | Difference [2, 7]: −1.15

CCN1CCCC(OC(=O)C(c2ccccc2)c2ccccc2)C1 (centres unmarked) [Piperidolate (hydrochloride)]
Cholesterol-free ([1]; (hydrochloride)): 0.554 | Complete ([1]; (hydrochloride)): 1.098 | Difference ([1]; (hydrochloride)): 0.54 | Cholesterol-free media + simvastatin (0.04 μM) ([2]; (hydrochloride)): 0.5751 | Complete Media ([2]; (hydrochloride)): 0.901 | Difference ([2]; (hydrochloride)): 0.33

CCN1CCCC(OC(=O)C(c2ccccc2)c2ccccc2)C1 (centres unmarked) [Piperidolate]
Cholesterol-free [1]: 1.19 | Complete [1]: 0.6819 | Difference [1]: −0.51 | Cholesterol-free media + simvastatin (0.04 μM) [2]: 0.8957 | Complete Media [2]: 1.487 | Difference [2]: 0.59

CCCCOCCOCCOCc1cc2c(cc1CCC)OCO2 [Piperonyl butoxide]
Difference [1, 16]: −0.29 | Cholesterol-free [1, 3]: 1.491 | Complete ([1]; NCI-H292 cells, complete media): 1.202 | Cholesterol-free media + simvastatin (0.04 μM) [2, 5]: 1.206 | Complete Media [2, 6]: 1.18 | Difference [2, 7]: −0.03

O=C(CCBr)N1CCN(C(=O)CCBr)CC1 [Pipobroman]
Difference [1, 16]: −0.30 | Cholesterol-free [1, 3]: 1.38 | Complete ([1]; NCI-H292 cells, complete media): 1.078 | Cholesterol-free media + simvastatin (0.04 μM) [2, 17]: 1.384 | Complete Media [2, 18]: 1.051 | Difference [2, 13]: −0.33

NC(=O)CN1CCCC1=O [Piracetam]
Difference [1, 8]: −0.50 | Cholesterol-free [1, 9]: 1.403 | Complete [1, 10]: 0.9062 | Cholesterol-free media + simvastatin (0.04 μM) [2, 11]: 1.178 | Complete Media [2, 12]: 1.066 | Difference [2, 13]: −0.11

COc1cccc2c1C(=O)c1c(O)c3c(c(O)c1C2=O)C[C@@](O)(C(=O)CO)C[C@@H]3O[C@H]1C[C@H](N)[C@H](O[C@@H]2CCCCO2)[C@H](C)O1 [Pirarubicin (Hydrochloride)]
Difference [1, 19]: −0.09 | Cholesterol-free [1, 15]: 0.6484 | Complete [1, 12]: 0.5605 | Cholesterol-free media + simvastatin (0.04 μM) [2, 5]: 0.5554 | Complete Media [2, 6]: 0.5244 | Difference [2, 20]: −0.03

CN1CCN(CC(=O)N2c3ccccc3C(=O)Nc3cccnc32)CC1 [Pirenzepine (dihydrochloride)]
Cholesterol-free [1, 21]: 1.465 | Complete [1, 22]: 1.606 | Difference [1, 23]: 0.14 | Cholesterol-free media + simvastatin (0.04 μM) [2, 5]: 1.293 | Complete Media [2, 6]: 1.265 | Difference [2, 7]: −0.03

Cc1ccc(=O)n(-c2ccccc2)c1 [Pirfenidone]
Cholesterol-free [1, 3]: 1.328 | Complete ([1]; NCI-H292 cells, complete media): 0.9771 | Difference [1, 4]: −0.35 | Cholesterol-free media + simvastatin (0.04 μM) [2, 17]: 1.397 | Complete Media [2, 18]: 1.068 | Difference [2, 13]: −0.33

c1cnc(N2CCN(Cc3ccc4c(c3)OCO4)CC2)nc1 [Piribedil]
Cholesterol-free [1, 21]: 0.8521 | Complete [1, 22]: 1.367 | Difference [1, 23]: 0.51 | Cholesterol-free media + simvastatin (0.04 μM) [2, 24]: 1.189 | Complete Media [2, 25]: 0.9878 | Difference [2, 13]: −0.20

CC1CCCC(C)N1CCCC(O)(c1ccccc1)c1ccccn1 (centres unmarked) [Pirmenol (hydrochloride)]
Difference [1, 14]: −0.15 | Cholesterol-free [1, 15]: 0.8727 | Complete [1, 12]: 0.7238 | Cholesterol-free media + simvastatin (0.04 μM) [2, 11]: 1.664 | Complete Media [2, 12]: 1.547 | Difference [2, 13]: −0.12

Cc1cc(CC(C)CC(C)(C)C)n(O)c(=O)c1.NCCO (centres unmarked) [Piroctone olamine]
Difference [1, 16]: −0.05 | Cholesterol-free [1, 21]: 0.04765 | Complete [1, 22]: 0.0002612 | Cholesterol-free media + simvastatin (0.04 μM) ([2]; NCI-H292 cells, cholesterol-free media with simvastatin 0.04 μM, cell growth value in FDA drug screen): 0 | Complete Media ([2]; NCI-H292 cells, complete media, cell growth value in FDA drug screen): 0.02737 | Difference [2, 26]: 0.03

CN1C(C(=O)Nc2ccccn2)=C(O)c2ccccc2S1(=O)=O [Piroxicam]
Difference [1, 8]: −0.71 | Cholesterol-free [1, 9]: 1.552 | Complete [1, 10]: 0.8427 | Cholesterol-free media + simvastatin (0.04 μM) [2, 17]: 1.433 | Complete Media [2, 18]: 1.008 | Difference [2, 13]: −0.42

O=C(O)C[C@H](O)C[C@H](O)/C=C/c1c(C2CC2)nc2ccccc2c1-c1ccc(F)cc1 [Pitavastatin (Calcium)]
Difference [1, 14]: −0.07 | Cholesterol-free [1, 15]: 0.4408 | Complete [1, 12]: 0.3693 | Cholesterol-free media + simvastatin (0.04 μM) [2, 5]: 0.4883 | Complete Media [2, 6]: 0.4437 | Difference [2, 7]: −0.04

Clc1ccc(CCCOCCCN2CCCCC2)cc1 [Pitolisant (hydrochloride)]
Cholesterol-free [1, 21]: 0.9791 | Complete [1, 22]: 1.232 | Difference [1, 23]: 0.25 | Cholesterol-free media + simvastatin (0.04 μM) [2, 11]: 0.442 | Complete Media [2, 12]: 1.031 | Difference [2, 26]: 0.59

CC(C)(C)C(=O)OCOC(=O)[C@@H]1N2C(=O)[C@@H](/N=C/N3CCCCCC3)[C@H]2SC1(C)C [Pivmecillinam (hydrochloride)]
Difference [1, 8]: −0.49 | Cholesterol-free [1, 9]: 1.646 | Complete [1, 10]: 1.161 | Cholesterol-free media + simvastatin (0.04 μM) [2, 24]: 1.219 | Complete Media [2, 25]: 1.044 | Difference [2, 13]: −0.18

CN1CCC(=C2c3ccccc3CCc3sccc32)CC1 [Pizotifen]
Cholesterol-free [1, 3]: 1.127 | Complete ([1]; NCI-H292 cells, complete media): 0.7811 | Difference [1, 4]: −0.35 | Cholesterol-free media + simvastatin (0.04 μM) [2, 11]: 0.849 | Complete Media [2, 12]: 1.216 | Difference [2, 26]: 0.37

c1cc(CN2CCCNCCNCCCNCC2)ccc1CN1CCCNCCNCCCNCC1 [Plerixafor (octahydrochloride)]
Difference [1, 14]: −0.08 | Cholesterol-free [1, 15]: 1.221 | Complete [1, 12]: 1.137 | Cholesterol-free media + simvastatin (0.04 μM) [2, 17]: 1.159 | Complete Media [2, 18]: 0.812 | Difference [2, 13]: −0.35

c1cc(CN2CCCNCCNCCCNCC2)ccc1CN1CCCNCCNCCCNCC1 [Plerixafor]
Cholesterol-free [1, 3]: 1.296 | Complete ([1]; NCI-H292 cells, complete media): 0.935 | Difference [1, 4]: −0.36 | Cholesterol-free media + simvastatin (0.04 μM) [2, 11]: 1.17 | Complete Media [2, 12]: 1.011 | Difference [2, 13]: −0.16

COc1cc([C@@H]2c3cc4c(cc3[C@H](O)[C@H]3COC(=O)[C@H]23)OCO4)cc(OC)c1OC [Podofilox]
Difference [1, 19]: −0.01 | Cholesterol-free [1, 21]: 0.05355 | Complete [1, 22]: 0.04847 | Cholesterol-free media + simvastatin (0.04 μM) [2, 5]: 0.1667 | Complete Media [2, 6]: 0.1215 | Difference [2, 20]: −0.05

Nc1cccc2c1C(=O)N(C1CCC(=O)NC1=O)C2=O (centres unmarked) [Pomalidomide]
Difference [1, 16]: −0.27 | Cholesterol-free [1, 3]: 1.37 | Complete ([1]; NCI-H292 cells, complete media): 1.095 | Cholesterol-free media + simvastatin (0.04 μM) [2, 5]: 1.093 | Complete Media [2, 6]: 1.03 | Difference [2, 7]: −0.06

Cc1ccc(C(=O)Nc2ccc(CN3CCN(C)CC3)c(C(F)(F)F)c2)cc1C#Cc1cnc2cccnn12 [Ponatinib]
Cholesterol-free [1]: 0.1141 | Complete [1]: 0.07529 | Difference [1]: −0.04 | Cholesterol-free media + simvastatin (0.04 μM) [2]: 0.4683 | Complete Media [2]: 0.4064 | Difference [2]: −0.06
